The subject of one test is HeLa cells. Description: cells. The note with it: for viability at 500 µM / CC50: Homo sapiens, HeLa; for viability at 500 µM: 65 h; for CC50: read-out: HeLa ED50; for HeLa Cells Alamar Blue: Supplementary Table 1. The method, then: (§1) Cytotoxic effects against HeLa and A549 cells were determined in a similar manner. Briefly, the cells were cultured in DMEM supplemented with 10% FCS and 2 mM L-Glutamine. Cells were plated at initial cell concentration of 2 × 10^4 cells/well and incubated with the compounds for ~65 hours prior to addition of Alamar Blue solution for a further 5 hours.
(Alamar Blue is a resazurin reagent that responds to reducing activity.)

A further test concerns A549 cells. Description: Cytotoxicity against A549 cells, Alamar Blue. Type of test: cell-based. The note with it: Supplementary Table 1, compound 0.5 mM, percentage of controls (n=1); for viability at 500 µM: Homo sapiens, A549, 65 h. The method, then: as §1
[1] abbreviates: read-out: HeLa Cells Alamar Blue.
The mark [2] stands for this setting: compound 0.5 mM, percentage of controls, mean ± SD (n=3) or SE (n=2).

Where two headings read alike, the source gives them in different places.

Regarding `CNCc1ccc(OC)cc1` [compound 199, N‐(4‐methoxybenzyl)‐N‐methylamine], the results for the viability at 500 µM in the test with HeLa cells (setting [1]) and in the test with A549 cells were 95.1 ± 15.3% and 71%, respectively.
For `OCc1ccc2c(c1)OCO2` [compound 200, 1,3‐benzodioxol‐5‐ylmethanol] the same measures were 85.2 ± 9.3% and 92.1%.
Taken in the same sequence, the figures for `O=C1CCC2CC1CCC2=O` [compound 206, bicyclo[3.3.1]nonane‐2,6‐dione] were 80.8 ± 7.6% and 42.1%.
As to `N#CC1(O)CN2CCC1CC2` (stereo not shown) [compound 208, 3‐hydroxyquinuclidine‐3‐carbonitrile], the values for the viability at 500 µM in the test on HeLa cells (setting [1]) and in the test with A549 cells were 99.4 ± 11.2% and 61.8%, respectively.
Taken in the same sequence, the figures for `OC12CC3CC(CC(C3)C1)C2` [compound 209, adamantan‐1‐ol] were 92.2 ± 6.7% and 76.1%.
In the case of `CC(=O)Nc1ccccc1F` [compound 212, N1‐(2‐fluorophenyl)acetamide], the viability at 500 µM in the test with HeLa cells (setting [1]) was 80.6 ± 6.6%; with A549 cells it was 65.4%.
With `COc1ccc(N)c(OC)c1` [compound 213, 2,4‐dimethoxyaniline], the viability at 500 µM in the test with HeLa cells (setting [1]) stood at 14 ± 8.2%; with A549 cells, 61.2%. Further, the CC50 in the test with HeLa cells was found to be 710 ± 96 µM.
Take `CSc1ccccc1CN` [compound 217, 2‐(methylthio)benzylamine]: the results for the viability at 500 µM with HeLa cells (setting [1]) and in the test on A549 cells were 27.1 ± 0.5% and 70.3%, respectively.
For `O=C(O)Cc1ccc(F)cc1` [compound 219, 2‐(4‐fluorophenyl)acetic acid] the same measures were 94.3 ± 13.4% and 98.4%.
Taken in the same sequence, the figures for `COC(=O)c1ccccc1F` [compound 220, methyl 2‐fluorobenzoate] were 108 ± 17.6% and 99.5%.
As to `CC12CCC(O)(CC1)CC2=O` [compound 222, 4‐hydroxy‐1‐methylbicyclo[2.2.2]octan‐2‐one], the “HeLa Cells Alamar Blue” value in the test with HeLa cells (setting [2]) is listed as 101.8 ± 5.9 percentage of controls. In addition, in the test with A549 cells, the “A549 Cells Alamar Blue” value is given as 82.3 percentage of controls.
Regarding `CCCCc1nc(CO)c[nH]1` [compound 223, (2‐butyl‐1H‐imidazol‐4‐yl)methanol], the viability at 500 µM in the test on HeLa cells (setting [1]) came to 105 ± 13.7%; with A549 cells it was 139%.
Take `CC1(C)CC(=O)CC(C)(C)N1` [compound 228, 2,2,6,6‐tetramethyltetrahydro‐4(1H)‐pyridinone]: in the test on HeLa cells (setting [2]), the “HeLa Cells Alamar Blue” value is 101.3 ± 5.4 percentage of controls. The “A549 Cells Alamar Blue” value with A549 cells is listed as 61.9 percentage of controls.
Consider `NC(=O)c1ccccc1Cl` [compound 230, 2‐chlorobenzamide], for which the viability at 500 µM in the test with HeLa cells (setting [1]) turned out to be 104 ± 8.8%; in the test on A549 cells, 92.9%.
Taken in the same sequence, the figures for `CNCc1ccc(Cl)cc1` [compound 231, N‐(4‐chlorobenzyl)‐N‐methylamine] were 113 ± 3.7% and 107%.
On to `Cc1cc(N)c(N)cc1Cl` [compound 240, 4-chloro-5-methylbenzene-1,2-diamine], for which the results for the viability at 500 µM in the test on HeLa cells (setting [1]) and in the test with A549 cells were 12.1 ± 8.7% and 14.7%, respectively. Further, the CC50 in the test on HeLa cells amounted to 454 ± 55 µM.
For `Cc1nc(CC(=O)O)cs1` [compound 243, 2‐(2‐methyl‐1,3‐thiazol‐4‐yl)acetic acid], the viability at 500 µM in the test with HeLa cells (setting [1]) turned out to be 99.5 ± 1.1%; in the test on A549 cells, 113%.
Taken in the same sequence, the figures for `CCOC(=O)C1CCNCC1` [compound 245, ethyl piperidine‐4‐carboxylate] were 97.8 ± 3.2% and 99%.
For `COc1ccc(Cl)cc1N` [compound 246, 5‐chloro‐2‐methoxyaniline] the same measures were 113 ± 16.7% and 113%.
For `c1ccc(Cn2cccc2)nc1` [compound 249, 2‐(1H‐pyrrol‐1‐ylmethyl)pyridine] the same measures were 93.1 ± 19.9% and 83.6%.
Regarding `Nc1ccc(-n2cccc2)cc1` [compound 250, 4‐(1H‐pyrrol‐1‐yl)aniline], the values for the viability at 500 µM in the test with HeLa cells (setting [1]) and in the test with A549 cells were 107 ± 16.6% and 89.1%, respectively. Further, the CC50 with HeLa cells is 1400 ± 100 µM.
For the compound `Clc1cn2ccsc2n1` [compound 253, 6‐chloroimidazo[2,1‐b][1,3]thiazole], the viability at 500 µM with HeLa cells (setting [1]) turned out to be 82.1%; in the test with A549 cells, 85.1%.
As to `OCc1ccc2ncccc2c1` [compound 255, 6‐quinolinylmethanol], the viability at 500 µM is 89.6 ± 6.8% in the test on HeLa cells (setting [1]) and 84% in the test with A549 cells.
Regarding `Cc1ccc(-c2cnco2)cc1` [compound 259, 5‐(4‐methylphenyl)‐1,3‐oxazole], the values for the viability at 500 µM in the test on HeLa cells (setting [1]) and in the test on A549 cells were 88.4 ± 2.5% and 88.1%, respectively.
For `Nc1ccccc1-n1cccn1` [compound 260, 2‐(1H‐pyrazol‐1‐yl)aniline] the same measures were 98.1 ± 5.6% and 97.3%.
Taken in the same sequence, the figures for `NCc1ccc(F)c(Cl)c1` [compound 264, 3‐chloro‐4‐fluorobenzylamine] were 47.5 ± 13.5% and 88.4%.
For `Cc1ccc2oc(=O)ccc2c1` [compound 265, 6‐methyl‐2H‐chromen‐2‐one] the same measures were 95.8 ± 17.2% and 63.8%.
As to `Oc1ccc(-n2ccnc2)cc1` [compound 266, 4‐(1H‐imidazol‐1‐yl)phenol], the figures for the viability at 500 µM in the test with HeLa cells (setting [1]) and in the test with A549 cells were 83 ± 19.8% and 108%, respectively.
With `Nc1cc(F)c(Cl)cc1N` [compound 269, 4-chloro-5-fluorobenzene-1,2-diamine], the figures for the viability at 500 µM in the test with HeLa cells (setting [1]) and in the test on A549 cells were 23.4 ± 14.8% and 50.4%, respectively. Further, the CC50 in the test with HeLa cells was 431 ± 53 µM.
Take `Nc1ccc(C(F)(F)F)cc1` [compound 270, 4‐(trifluoromethyl)aniline]: the viability at 500 µM in the test with HeLa cells (setting [1]) was determined as 21.8 ± 14.5%; with A549 cells, 104%. For the same compound, the CC50 in the test on HeLa cells came out at 206 ± 13 µM.
`COC(=O)c1ccccc1C#N` [compound 274, methyl 2‐cyanobenzoate]: the figures for the viability at 500 µM in the test on HeLa cells (setting [1]) and with A549 cells were 91 ± 19.6% and 64%, respectively.
Turning to `O=C(O)c1cc2ccccc2[nH]1` [compound 275, 1H‐indole‐2‐carboxylic acid], the viability at 500 µM in the test with HeLa cells (setting [1]) was 89.7 ± 16.4%; in the test on A549 cells it was 67.3%.
For `Cn1ccc2ccc(CO)cc21` [compound 278, (1‐methyl‐1H‐indol‐6‐yl)methanol] the same measures were 18.2 ± 10.4% and 47.8%.
`Nc1cc(Cl)cc(Cl)c1` [compound 282, 3,5‐dichloroaniline]: the viability at 500 µM in the test with HeLa cells (setting [1]) was 86.4 ± 8.5%; in the test with A549 cells, 66.5%.
For `Nc1ccc(C(F)(F)F)cn1` [compound 283, 5‐(trifluoromethyl)pyridin‐2‐amine] the same measures were 92.7 ± 5.3% and 63.6%.
Taken in the same sequence, the figures for `OCCc1coc2ccccc12` [compound 284, 2‐benzo[b]furan‐3‐ylethanol] were 58.7 ± 17.4% and 63.3%.
Taken in the same sequence, the figures for `Cn1nc(CO)c2ccccc21` [compound 286, (1‐methyl‐1H‐indazol‐3‐yl)methanol] were 90.9 ± 3.1% and 73.2%.
For the compound `Cc1nc2ccccn2c1CO` [compound 287, (2‐methylimidazo[1,2‐a]pyridin‐3‐yl)methanol], in the test on HeLa cells (setting [2]), the “HeLa Cells Alamar Blue” value is on record as 76.2 ± 14 percentage of controls. Moreover, the “A549 Cells Alamar Blue” value with A549 cells is listed as 79.7 percentage of controls.
Take `Nc1ccccc1N1CCCC1` [compound 289, 2‐pyrrolidin‐1‐ylaniline]: the values for the viability at 500 µM in the test on HeLa cells (setting [1]) and with A549 cells were 11.4 ± 9.5% and 23.8%, respectively.
For `O=C(O)c1sccc1Cl` [compound 290, 3‐chlorothiophene‐2‐carboxylic acid], the results for the viability at 500 µM with HeLa cells (setting [1]) and with A549 cells were 86.9 ± 14.3% and 117%, respectively.
Taken in the same sequence, the figures for `NCCc1cccc2c1OCC2` [compound 293, 2,3‐Dihydrobenzo[b]furan‐7‐ethylamine] were 10.8 ± 0.1% and 19.8%.
Taken in the same sequence, the figures for `NCc1ccc2sccc2c1` [compound 294, 1‐benzothiophen‐5‐ylmethylamine] were 98.5 ± 13.1% and 70.6%.
For `FC(F)(F)C1=NCCNC=C1` [compound 295, 5‐(trifluoromethyl)‐2,3‐dihydro‐1H‐1,4‐diazepine], in the test with HeLa cells (setting [2]), the “HeLa Cells Alamar Blue” value was 75.2 ± 18.7 percentage of controls. The “A549 Cells Alamar Blue” value with A549 cells is listed as 72.1 percentage of controls.
For `Oc1ncnc2cccc(F)c12` [compound 296, 5‐fluoroquinazolin‐4‐ol], the viability at 500 µM with HeLa cells (read-out: HeLa Cells Alamar Blue, Supplementary Table 1, compound 0.5 mM, percentage of controls, mean ± SD (n=3) or SE (n=2)) amounted to 92.7 ± 1.9%; in the test on A549 cells it was 63.7%.
As to `O=C(O)c1cccc2c1OCC2` [compound 297, 2,3‐dihydrobenzo[b]furan‐7‐carboxylic acid], in the test with HeLa cells (setting [2]), the “HeLa Cells Alamar Blue” value is recorded as 78.8 ± 7.5 percentage of controls. The “A549 Cells Alamar Blue” value in the test on A549 cells is recorded as 74.9 percentage of controls.
Turning to `OCC1CCc2ccccc2O1` (stereo not shown) [compound 299, 3,4‐dihydro‐2H‐chromen‐2‐ylmethanol], the viability at 500 µM in the test on HeLa cells (setting [1]) came out at 85.1 ± 14.7%; in the test on A549 cells, 80.3%.
For `OCC1COc2ccccc2C1` (stereo not shown) [compound 300, 3,4‐dihydro‐2H‐chromen‐3‐ylmethanol] the same measures were 90 ± 16.3% and 113%.
Taken in the same sequence, the figures for `Cc1nc2ccc(N)cc2s1` [compound 302, 2‐methyl‐1,3‐benzothiazol‐6‐ylamine] were 71.9 ± 12.4% and 62.3%.
For `COC(=O)c1ccc(N)c(C)c1` [compound 304, methyl 4‐amino‐3‐methylbenzoate] the same measures were 100 ± 8.9% and 63.4%.
